Test results: patent publication US20060269924A1, “Modulation of telomere-initiated cell signaling” (TRUSTEES OF BOSTON UNIVERSITY, priority 2003, published 2006)
{P} = phosphate

Assays:
Format in all cases: cell-based
[1] = tested on: keratinocyte cell line (SSC12F); test: S-phase arrest by FACS in keratinocyte cell line; conditions: 48 hours, 11mer-1 alone (10 μM per FIG. 3B)
Experimental: FIGS. 3A-3G are profiles showing the results of fluorescence activated cell sorting, for the following additions to the cells: FIG. 3A, diluent; FIG. 3B, 10 μM 11mer-1; FIG. 3C, 10 μM 11mer-1 and 1 μM 11mer-1-S; FIG. 3D, 10 μM 11mer-1 and 5 μM 11mer-1-S; FIG. 3E, 10 μM 11mer-1 and 10 μM 11mer-1-S; FIG. 3F, 20 μM 11mer-1-S; FIG. 3G, 10μM 11mer-1-S.
Forty-three percent of the cells were in the S phase, compared to 26% of the control, diluent-treated cells.

[2] = tested on: human fibrosarcoma HT-1080 cells; test: SA-β-Gal staining, HT-1080 cells
Experimental: FIG. 13a: Exposure to T-oligo increases SA-β-Gal activity. HT-1080 cells were treated for 4 days with diluent alone or 40 μM T-oligo or the complementary control oligo, then stained and assayed for SA-β-Gal activity. FIG. 13b: Quantitative analysis of SA-β-Gal positive cells. Cells expressing SA-β-Gal activity were counted and presented as percentage of total cells in the cultures. Averages and standard deviations were calculated from 3 representative fields from each of 3 independent experiments. FIG. 13c: Effect of T-oligo on cell proliferation. Cells were treated for 4 days as in FIG. 12 and assayed for DNA synthesis by BrdU incorporation. FIG. 13d: Quantitative analysis of BrdU incorporation. Dark black nuclei indicate BrdU incorporated into nuclear DNA. BrdU positive cells were calculated and presented as percentage of total cells in the cultures. Averages and standard deviations were calculated from 3 representative fields from each of 3 independent experiments. FIG. 13e: Effect of T-oligo on pRb phosphorylation. Cells were treated as in FIG. 13a and were then collected for protein analysis by western blot using 30 μg total protein and probed for pRb-ser780*, ser795* and ser807/811* (pRb phosphorylated at serine 780, serine 795 and serine 807/811 respectively). Lanes D, T and C contain protein samples from cells treated with diluent, T-oligo and complementary oligo respectively. β-actin was used as a loading control.
Parallel cultures were treated as described in FIG. 13a. Cells were then washed once with PBS and refed with complete medium without additional treatment for 24 hours or 48 hours. FIG. 14a: SA-β-Gal activity. Cells were stained for SA-β-Gal activity. […]
TRF2^DN has been reported to induce a senescent phenotype in human fibrosarcoma HT-1080 cells. To determine whether exposure to the telomere 3′ overhang DNA (T-oligo) also induces senescence in these cells, HT-1080 cells (American Type Culture Collection; Manassas, Va.) were treated with either diluent alone, T-oligo or the complementary oligo as a control, for 4 days and then assessed for SA-β-Gal activity. […]

fibroblasts = test: Degradation of the telomere 3′ overhang in fibroblasts; conditions: up to 1 week (data not shown)
p53 phosphoserine 37 = test: Western blot for p53 phosphoserine 37; conditions: normal neonatal fibroblasts, 40 μM
Experimental: Western blot analysis was performed on normal neonatal cells using a antibody specific for p53 phosphoserine 37 after being treated with either diluent or 40 μM for the indicated times.
Normal neonatal fibroblasts were treated with either diluent or 40 μM (11mer-1) for 4, 6, 8, 19, 24 and 48 hours and then collected for Western blot analysis using an antibody specific for p53 phosphoserine 37. Sham and IR-irradiated (10 Gy) fibroblasts were used used as negative and positive controls, respectively.

## pGTTAGGGTTAG (DNA, 5' {P}, backbone not given here; listed as Homo sapiens) [Oligonucleotide 11mer-1]
[1]
  cells in the S phase: Forty-three
[2]; HT-1080, 4 days 40 μM, then 1 and 2 days fresh medium without oligonucleotide
  SA-β-Gal activity after removal of oligo: increase in SA-β-Gal activity
[2]; HT-1080 cells, 40 μM, 4 days
  SA-β-Gal positive cells: 80±7%
fibroblasts
  degradation of the telomere 3′ overhang: does not result in degradation
p53 phosphoserine 37; 8 hours
  p53 serine 37 phosphorylation (band intensity vs diluent): detected
p53 phosphoserine 37; 48 hours
  p53 serine 37 phosphorylation (band intensity vs diluent): very prominent
